Laboratory results from US8283337B2, “Therapeutic or prophylactic agent for vasoconstriction” (Next21 K.K., priority 2007, dated 2012).

Key:
[1] = system: rat macrophage-like cells (RAW264.7); assay: Vasospastic cell model, PGE2/PGD2 production by ELISA after erythrocyte lysis solution; assay type: cell-based; settings: blood pretreated with 10 wt % sugar, medium 5 wt % sugar, lysis solution 18 hours
Description: A vasospastic cell model was constructed by using […] macrophage-like cells (RAW264.7) for study on whether trehalose has anti-inflammatory action.
Physiological saline (Sal), 10 wt % trehalose (Tre) and 10 wt % maltose (Mal) were added respectively to the blood collected from a rat (10 to 12 weeks of age, male) for pretreatment, and the mixture was processed in an ultrasonic homogenizer, to prepare an erythrocyte lysis solution. 1×10^6 or 2×10^6 of RAW264.7 cells were inoculated on a plate on the day before addition of the lysis solution, and were cultured in a medium comprising physiological saline, 5 wt % trehalose and 5 wt % maltose (respectively, as abbreviated to Sal, Tre and Mal) placed in an incubator (37° C., CO2: 5%). The culture medium used was Dulbecco's Modified Eagle Medium (D-MEM) comprising 10% fetal bovine serum (FBS), penicillin and streptomycin. The next day, the lysis solution was added in an amount of 1/10 of the medium, and the mixture was incubated in the incubator (37° C., CO2: 5%) for 18 hours. Then, the cells were washed with PBS; new medium was added; and the mixture was placed in the incubator (37° C., CO2: 5%). The medium was collected after one hour for ELISA analysis. The ELISA was carried out by using Prostaglandin E2 EIA kit-monoclonal (manufactured by Cayman) or Prostaglandin D2 EIA kit (manufactured by Cayman). […] For control, a lysis solution-untreated group (added respectively with physiological saline, trehalose and maltose) was also analyzed similarly (FIG. 8, FIG. 9: right column 3). Three or more independent tests were carried out to obtain the average, and the standard deviation obtained was expressed with error bars.

[2] = system: normal human umbilical vein endothelial cells (HUVEC); assay: Vasospastic cell model, PGE2 production by ELISA after erythrocyte lysis solution; assay type: cell-based; settings: lysis solution from blood pretreated with 10 wt % sugar, 6 hours
Description: A vasospastic cell model was constructed by using normal human umbilical vein endothelial cells (HUVEC), for study on whether trehalose has anti-inflammatory action.
Physiological saline (Sal), 10 wt % trehalose (tre) and 10 wt % maltose (Mal) were added respectively to the bloods collected from a rat (10 to 12 weeks of age, male) for pretreatment, and the mixture was processed in an ultrasonic homogenizer, to prepare an erythrocyte lysis solution. The HUVEC cells were inoculated on a plate in an amount of 1×10^5 cells on the day before the addition of the lysis solution and were cultured in an incubator (37° C., CO2: 5%). The culture medium used was endothelial cell basic medium (EBM-2) comprising 2% fetalbovine serum (FBS), hEGF (human epidermal growth factor), heparin, hydrocortisone, ascorbic acid, VEGF (vascular endothelial growth factor), R3-IGF-1 (recombinant insulin-like growth factor-1), gentamicin and amphotericin-B. The next day, the lysis solution in an amount of 1/10 of the medium was added to the HUVEC cells, and the mixture was incubated in an incubator (37° C., CO2: 5%) for 6 hours. The medium was then collected for ELISA analysis. […] The lysis solution-untreated group (added respectively with physiological saline, trehalose and maltose) was also analyzed similarly as a control group (FIG. 10: right column 3). […]

femoral artery = assay: Vasospasm model using rat femoral artery exposed to self blood; assay type: in vivo; settings: 7 days after exposure; for arterial sectional area relative to saline-exposed artery: SD rat femoral artery
Excerpt: Twenty seven male SD rats of 10 weeks of age were divided into three groups randomly. These rats were properly anesthetized. The groin was cut open and then the femoral artery was divided and separated sufficiently from the surrounding soft tissue etc. The femoral artery was covered with a catheter. The catheter used was a 10 mm-length vinyl chloride cylindrical catheter. Self blood collected from femoral vein was fed into the space between the catheter and vascular adventitia and the bottom face of the cylinder was sealed with an adhesive agent. The adhesive agent used was a cyanoacrylate-based adhesive agent. The operations above were carried out aseptically and surgically. Then, the surgical injury was closed. The lumen of the blood-exposed femoral artery narrowed and the tunica intima and tunica media thickened, after peaking in about 7 days after exposure. This model is a model according to “Nakamura et al., Japan Neurosurgical Society, Abstract of 49th Annual Meeting 199, 1990”.
Left and right femoral arteries (FAs) of each rat were exposed to the substances shown in the following Table 1 by using the model above. 4% paraformaldehyde (PFA) solution was perfused, 7 days after commencement of exposure and each femoral artery was fixed and collected. The collected femoral artery (FA) was immersed in 4% PFA, and part of the femoral artery was immersed in sucrose solution and then embedded as frozen. A section of 5 μm in thickness was obtained with cryostat from the frozen femoral artery thus obtained. The section was subjected to hematoxylin-eosin staining (HE staining). The HE-stained sample was analyzed by using an image analyzer equipped with an image analysis program, and the sectional area of the lumen and the thickness of the tunica media in each tissue were determined. The radius of the blood vessel was determined from the peripheral length of the lumen of the blood vessel, and the lumen sectional area was calculated from it. In addition, the distance between the internal and external elastic layers was measured at four points, and the average thereof was determined, to obtain the thickness of the tunica media. There were cases when the blood vessel was cleaved or was not sufficiently fixed during analysis, and thus 6 samples, which were analyzed under favorable conditions, among 9 samples prepared in each group, were selected for collection of data.

cerebral vasospasm = assay: Rabbit subarachnoid hemorrhage model, intracerebral blood flow by perfusion-MRI; assay type: in vivo; settings: group II, self blood + 15 wt % trehalose solution into cisterna magna, two days after second administration; blood + saline group approximately 60%
Description: Intracerebral blood flow was evaluated via perfusion-MRI method by using a rabbit subarachnoid hemorrhage model for analysis of the vasospasm-inhibiting action of trehalose.
After magnetic resonance imaging (MRI) of a NZW rabbit (14 weeks of age, approximately 3.0 kg, male) in the normal state, the occipital region was shaved and the cisterna magna was punctured, and blood samples [group I: self blood+physiological saline (blood+Sal), group II: self blood+15 wt % trehalose solution (blood+Tre) and group III: physiological saline (Sal)] were injected into different test animals respectively in an amount of 3 ml. Additionally, 2 ml of blood sample and physiological saline (total of 5 ml) were injected to the same test animals by a similar method, two days later. Two days after the second administration, the influence of trehalose on cerebral vasospasm was evaluated via perfusion-MRI method (cerebrovascular normality is calculated by injecting a contrast medium through otic vein into the brain and determining the degree of recovery in brightness quantitatively) by using a high-definition MRI apparatus for animals (4.7 tesla, resolution: 50 μm) manufactured by Varian. Three independent tests were carried out to obtain the average, and the standard deviation obtained was expressed with error bars.

basilar artery = assay: Rabbit subarachnoid hemorrhage model, histological analysis of basilar artery; assay type: in vivo; settings: group II, self blood + 15 wt % trehalose solution
Description: The vasospasm-inhibiting action of trehalose was analyzed via a histological method by using a rabbit subarachnoid hemorrhage model.
After the occipital region of a NZW rabbit (14 weeks of age, approximately 3.0 kg, male) was shaved and the cisterna magna was punctured, blood samples [group I: self blood+physiological saline (blood+Sal), group II: self blood+15 wt % trehalose solution (blood+Tre) and group III: physiological saline (Sal)] were injected into different test animals respectively in an amount of 3 ml. Additionally, 2 ml of blood sample and physiological saline (total of 5 ml) were injected to the same test animal by a similar method, two days later. Two days after the second administration, the animals were perfused with 4% paraformaldehyde for stabilization, and the brain stem and the basilar arteries were collected. The tissue was embedded in paraffin, cut into a section of 5 μm in thickness, and observed after hematoxylin-eosin staining (HE staining) The results are shown in FIG. 12.

[3] = two days after second administration

OC[C@H]1O[C@H](O[C@H]2[C@H](O)[C@@H](O)C(O)O[C@@H]2CO)[C@H](O)[C@@H](O)[C@@H]1O (mixture of isomers) [maltose, reference compound]
amount of PGD2 produced versus lysis solution-untreated control group [1]: inflammatory reaction was also induced | amount of PGE2 produced versus lysis solution-untreated control group [1]: inflammatory reaction was also induced | PGE2 production (induction of inflammatory reaction) versus lysis solution-untreated control group [2]: inflammatory reaction was induced

OC[C@H]1O[C@H](O[C@H]2O[C@H](CO)[C@@H](O)[C@H](O)[C@H]2O)[C@H](O)[C@@H](O)[C@@H]1O [trehalose]
arterial sectional area relative to saline-exposed artery (femoral artery; group II, trehalose 3.75 wt % (blood:15% TL solution = 3:1)): 86% | tunica media thickness (after exposure to blood + trehalose / after exposure to physiological saline) (femoral artery; group II, trehalose 3.75 wt %): 0.93 times | arterial sectional area relative to saline-exposed artery (femoral artery; group III, trehalose 7.5 wt % (blood:30% TL solution = 3:1)): 39% | tunica media thickness (after exposure to blood + trehalose / after exposure to physiological saline) (femoral artery; group III, trehalose 7.5 wt %): 1.74 times | amount of PGD2 produced versus lysis solution-untreated control group [1]: not increased | amount of PGE2 produced versus lysis solution-untreated control group [1]: not increased | PGE2 production (induction of inflammatory reaction) versus lysis solution-untreated control group [2]: induction of inflammatory reaction was suppressed | normality of cerebral blood vessel (brightness after treatment/before treatment), physiological saline group = 100% (cerebral vasospasm): approximately 80% | vasospasm with respect to group I (self blood + physiological saline) (basilar artery; basilar artery histology): suppressed definitely | blood vessel diameter of basilar artery (HE staining) (basilar artery; [3]): no reduction of the blood vessel diameter | tunica media thickness of basilar artery (HE staining) (basilar artery; [3]): some increase in tunica media thickness
